{"source": "paper PMC11572954", "about": "(Science (New York, N.Y.), 2024)", "key": {"GPR84": {"target": "GPR84 (Homo sapiens, UniProt Q9NQS5)", "sequence (Q9NQS5 whole entry)": "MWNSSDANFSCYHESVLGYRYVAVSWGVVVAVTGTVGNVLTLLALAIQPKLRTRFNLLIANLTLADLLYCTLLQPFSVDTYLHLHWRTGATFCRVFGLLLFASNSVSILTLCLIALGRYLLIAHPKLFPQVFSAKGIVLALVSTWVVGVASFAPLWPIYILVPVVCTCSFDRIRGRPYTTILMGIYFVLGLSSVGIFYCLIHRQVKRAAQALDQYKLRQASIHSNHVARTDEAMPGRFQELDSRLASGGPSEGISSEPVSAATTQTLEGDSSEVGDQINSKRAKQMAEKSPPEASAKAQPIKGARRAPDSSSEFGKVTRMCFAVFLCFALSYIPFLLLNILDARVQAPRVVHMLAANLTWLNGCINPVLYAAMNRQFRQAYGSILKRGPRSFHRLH", "experiment": "DiscoverX cell-based reporter assay, agonist mode"}, "[1]": {"target": "T1, F. prausnitzii FAAH (CGOBPECO_01956) (Faecalibacterium prausnitzii, UniProt A0A564UB45)", "T1 sequence (A0A564UB45 31-399)": "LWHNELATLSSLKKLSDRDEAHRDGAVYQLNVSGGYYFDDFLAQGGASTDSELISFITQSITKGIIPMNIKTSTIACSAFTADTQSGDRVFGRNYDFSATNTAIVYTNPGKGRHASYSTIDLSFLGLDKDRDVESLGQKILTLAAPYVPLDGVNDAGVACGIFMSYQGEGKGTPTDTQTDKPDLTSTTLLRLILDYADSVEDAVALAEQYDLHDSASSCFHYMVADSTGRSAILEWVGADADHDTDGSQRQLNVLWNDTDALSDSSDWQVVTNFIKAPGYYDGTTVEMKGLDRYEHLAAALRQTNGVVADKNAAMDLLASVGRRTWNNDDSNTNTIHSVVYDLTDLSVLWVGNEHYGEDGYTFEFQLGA", "experiment": "LC-MS hydrolysis rate assay", "assay_type": "biochemical", "details": "100 uM OEA"}, "PPARδ": {"target": "T2, PPARδ (Homo sapiens, UniProt Q03181)", "T2 sequence (Q03181 1-441)": "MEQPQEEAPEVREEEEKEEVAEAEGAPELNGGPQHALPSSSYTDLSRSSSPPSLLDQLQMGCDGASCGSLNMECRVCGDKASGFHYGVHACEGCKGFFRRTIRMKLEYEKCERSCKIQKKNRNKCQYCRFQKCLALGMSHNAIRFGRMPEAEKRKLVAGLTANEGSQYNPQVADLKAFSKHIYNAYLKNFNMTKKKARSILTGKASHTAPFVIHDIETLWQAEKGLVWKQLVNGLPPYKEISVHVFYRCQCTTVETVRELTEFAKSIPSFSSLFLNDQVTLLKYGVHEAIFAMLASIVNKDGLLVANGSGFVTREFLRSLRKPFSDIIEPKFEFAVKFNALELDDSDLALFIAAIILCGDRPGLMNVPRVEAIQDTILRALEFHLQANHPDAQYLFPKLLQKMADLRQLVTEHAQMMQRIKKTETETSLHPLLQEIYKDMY", "experiment": "DiscoverX cell-based reporter assay, agonist mode"}, "PPARα": {"target": "T3, PPARα (Homo sapiens, UniProt Q07869)", "T3 sequence (Q07869 1-468)": "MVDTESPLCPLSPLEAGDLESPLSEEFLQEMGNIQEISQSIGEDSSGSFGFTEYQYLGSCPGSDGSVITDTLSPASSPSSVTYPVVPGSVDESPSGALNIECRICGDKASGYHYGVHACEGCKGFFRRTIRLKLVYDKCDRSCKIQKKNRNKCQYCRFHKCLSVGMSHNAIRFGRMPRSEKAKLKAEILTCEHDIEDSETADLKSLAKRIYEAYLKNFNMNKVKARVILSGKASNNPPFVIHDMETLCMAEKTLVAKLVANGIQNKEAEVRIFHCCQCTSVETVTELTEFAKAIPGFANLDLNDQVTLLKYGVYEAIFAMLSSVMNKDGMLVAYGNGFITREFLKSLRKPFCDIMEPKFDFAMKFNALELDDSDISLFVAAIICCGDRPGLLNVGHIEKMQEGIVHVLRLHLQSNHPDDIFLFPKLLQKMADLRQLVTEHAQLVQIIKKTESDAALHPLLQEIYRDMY", "experiment": "DiscoverX cell-based reporter assay, agonist mode"}}}
{"smiles": "CCCCCCCC/C=C\\CCCCCCCC(=O)NCCO", "note": "[OEA]", "values": [{"measurement": "% activation at 10 μM", "setting": "GPR84", "result": "GPR84, which was strongly activated by OEA"}, {"measurement": "LC-MS hydrolysis rate assay", "setting": "[1]", "result": "hydrolytic activity of FAAH against PEA, OEA, C18:1-Arg, and C18:1-Lys (Fig. 2D)"}, {"measurement": "% activation at 10 μM", "setting": "PPARδ", "result": "OEA was a strong agonist of PPARδ and to a lesser extent PPARα"}, {"measurement": "% activation at 10 μM", "setting": "PPARα", "result": "OEA was a strong agonist of PPARδ and to a lesser extent PPARα"}]}
